This note sets out measurements from patent US20240287154A1, “MC3R AGONIST PEPTIDES” (The Regents of the University of Michigan, priority 2021, published 2024).

Non-standard residues stand in square brackets, D forms with d. Residues, ends and D or L forms follow the SMILES beside them. Phe(4-Br) = N[C@@H](Cc1ccc(Br)cc1)C(=O)O; NMeY = CN[C@@H](Cc1ccc(O)cc1)C(=O)O; Nle = CCCC[C@H](N)C(=O)O

One series can be described thus: in vitro. The method, then:
Pooled mouse plasma was prepared and stored at −80° C. prior to use. 396 μL mouse plasma was incubated at 37° C. for 5 minutes in 1.5 mL microcentrifuge tubes. 4 μL of 100 μM test or control compound/peptide was added to each tube and incubated for 0.5, 15, 30, 60, 120, or 240 minutes. An aliquot of 40 μL of each reaction was stopped by the addition of 4 volume of cold acetonitrile containing 200 ng/mL of Setmelanotide as an internal standard (IS). The incubation solution was centrifuged at 3500 rpm for 10 minutes to precipitate protein. The supernatant was used for LC/MS/MS analysis. The natural log peak area ratio (compound peak […] area/internal standard peak area) was plotted against time and the gradient of the line determined.

A further series concerns the target human MC4R (Homo sapiens, UniProt P32245). The series is described as follows: Intracellular cAMP levels in live cells, MC3R selectivity relative to MC4R. It is filed as cell-based. Particulars: cAMP assays in human MC3R and human MC4R stable cell lines. (In general: Changes in cAMP serve as a functional read-out for many G protein-coupled receptors.)
For another series, the target named is T1, human MC3R (Homo sapiens, UniProt P41968).
T1 construct: expressed in transfected cells
T1 sequence (P41968 whole entry): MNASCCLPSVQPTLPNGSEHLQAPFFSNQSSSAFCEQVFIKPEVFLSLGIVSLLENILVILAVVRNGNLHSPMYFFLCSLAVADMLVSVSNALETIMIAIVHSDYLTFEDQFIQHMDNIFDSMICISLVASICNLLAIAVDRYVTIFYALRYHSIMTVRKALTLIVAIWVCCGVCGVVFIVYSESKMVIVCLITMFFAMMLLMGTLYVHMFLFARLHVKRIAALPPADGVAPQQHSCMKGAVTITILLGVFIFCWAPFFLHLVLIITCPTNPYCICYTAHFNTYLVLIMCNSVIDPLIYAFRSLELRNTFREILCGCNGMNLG
The series is described as follows: Intracellular cAMP levels in live cells, MC3R agonist activity. It is filed as cell-based. The settings on record: cAMP split-luciferase reporter cell line stably expressing human MC3R; direct agonist effect, measurement window 1. On the procedure: The stable cell lines were grown and maintained in selection media consisting of Dulbecco's modified Eagle media (DMEM) with 4.5 g/l D-glucose, and 4 mM L-glutamine (Thermo Fisher Scientific, Waltham, MA), supplemented with 10% fetal bovine serum, 100 units/ml penicillin, 100 μg/ml streptomycin, 2.5 μg/ml amphotericin B, 200 μg/ml hygromycin B (for positive selection of the GScAMP22f luciferase reporter), and Geneticin™ (G418) 700 μg/ml (for MC3R or MC4R selection). Actual serum concentration during the assay is estimated to be about 1%. Cell line identity is routinely verified by qPCR and MC3R- and MC4R-specific oligonucleotides.
The assay for the determination of the CAMP response in live cells was described previously. […] Ccells were seeded at a density of 20,000 cells per well using 384-well poly-D lysine-coated, clear bottom, and black-wall assay plates (Corning Inc. Corning, NJ). Cells were allowed to attach to the plates for 18 to 24 h after which growth media was removed and 20 ul of 4% D-luciferin (Promega) in CO2 independent, serum-free medium (Thermo Fisher Scientific) was added to each well. […] Intracellular cAMP levels were measured using an FDSS 7000EX Functional Drug Screening System (Hamamatsu Photonics, Hamamatsu, Japan) in the Center for Chemical Genomics at the Life Sciences Institute. This instrument allowed the in-line addition of test-peptides and receptor agonists while simultaneously acquiring the luminescence signal from live cells. […] A submaximal forskolin (20 μM) concentration was also included to serve as a normalization reference to account for cell number variations and differences in assay transducer efficiency between cell lines.
With this set up it was possible to evaluate the direct agonist effect of the test-peptides on the MC3R and MC4R cell lines during measurement window 1, while the antagonist profile in the presence of EC90 α-MSH was determined on measurement window 2. […] EC50 or IC50 potency values were determined by non-linear regression by fitting the data to a sigmoid four-parameter variable slope model using the GraphPad Prism version 8.4 software package (San Diego CA).

Sequence of human MC4R (P32245 whole entry): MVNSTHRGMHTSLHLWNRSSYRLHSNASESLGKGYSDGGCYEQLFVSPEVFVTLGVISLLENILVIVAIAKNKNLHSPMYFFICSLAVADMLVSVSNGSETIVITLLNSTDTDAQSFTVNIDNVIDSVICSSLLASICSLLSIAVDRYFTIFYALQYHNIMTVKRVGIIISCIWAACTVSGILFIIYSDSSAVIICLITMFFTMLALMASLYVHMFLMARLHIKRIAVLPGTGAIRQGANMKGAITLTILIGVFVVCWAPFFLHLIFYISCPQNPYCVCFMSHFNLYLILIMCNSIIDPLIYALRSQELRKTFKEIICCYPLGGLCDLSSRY

For the compound `CCCC[C@H](NC(=O)[C@@H](NC(=O)[C@@H](N)Cc1ccc(O)cc1)C(C)C)C(=O)N[C@H](C)C(=O)N[C@@H](Cc1c[nH]cn1)C(=O)N[C@@H](Cc1ccccc1)C(=O)N[C@@H](CCCNC(=N)N)C(=O)N[C@H](Cc1c[nH]c2ccccc12)C(=O)N[C@@H](CC(=O)O)C(=O)N[C@@H](CCCNC(=N)N)C(=O)N[C@@H](Cc1ccccc1)C(=O)NCC(=O)O` [CTX-1103, Tyr-Val-Nle-D-Ala-His-Phe-Arg-D-Trp-Asp-Arg-Phe-Gly] (H-YV[Nle][dA]HFR[dW]DRFG-OH), in “in vitro” (mouse, plasma), the half-life at 1 µM was 1.46 min; the share remaining at 5 min, 1 µM was 9.3%; the amount remaining at 0.25 h, 1 µM was 0.21%; the amount remaining at 0.5 h, 1 µM was determined as 0.03%. Moreover, in the series “in vitro” (mouse, plasma), the amount remaining at 1 h, 1 µM stood at 0.02%. This compound also gave a Mouse Plasma Stability, time point 0 min in the series “in vitro” (pooled mouse plasma, 37° C.) of 100%. Besides, the “MC3R selectivity (relative to MC4R)” value at human MC4R is on record as 229.
Turning to `CC(C)[C@H](NC(=O)[C@@H](N)Cc1ccc(O)cc1)C(=O)N[C@@H](CCC(=O)O)C(=O)NCC(=O)N[C@@H](Cc1c[nH]cn1)C(=O)N[C@@H](Cc1ccccc1)C(=O)N[C@@H](CCCNC(=N)N)C(=O)N[C@H](Cc1c[nH]c2ccccc12)C(=O)N[C@@H](CC(=O)O)C(=O)N[C@@H](CCCNC(=N)N)C(=O)N[C@@H](Cc1ccccc1)C(=O)NCC(N)=O` [CTX-1105, Tyr-Val-Glu-Gly-His-Phe-Arg-D-Trp-Asp-Arg-Phe-Gly] (H-YVEGHFR[dW]DRFG-NH2), in the series “in vitro” (mouse, plasma), the half-life at 1 µM was determined as 2.38 min; the fraction remaining at 5 min, 1 µM turned out to be 23.4%; the share remaining at 0.25 h, 1 µM is 1.51%; the share remaining at 0.5 h, 1 µM was found to be 0.3%. Further, in “in vitro” (mouse, plasma), the fraction remaining at 1 h, 1 µM was 0.27% and the fraction remaining at 2 h, 1 µM came to 0.12%. The Mouse Plasma Stability, time point 0 min in “in vitro” (pooled mouse plasma, 37° C.) was 100%. Moreover, on human MC4R, the “MC3R selectivity (relative to MC4R)” value is listed as 500.
For `CC(C)[C@H](NC(=O)[C@@H](N)Cc1ccc(O)cc1)C(=O)N[C@@H](CCC(=O)O)C(=O)N[C@H](C)C(=O)N[C@@H](Cc1c[nH]cn1)C(=O)N[C@H](Cc1ccccc1)C(=O)N[C@@H](CCCNC(=N)N)C(=O)N[C@H](Cc1c[nH]c2ccccc12)C(=O)N[C@@H](CC(=O)O)C(=O)N[C@@H](CCCNC(=N)N)C(=O)N[C@@H](Cc1ccccc1)C(=O)NCC(=O)O` [CTX-1106, Tyr-Val-Glu-D-Ala-His-D-Phe-Arg-D-Trp-Asp-Arg-Phe-Gly] (H-YVE[dA]H[dF]R[dW]DRFG-OH), on human MC3R, a half-maximal response (EC50) required 5.8 nM. Also, the “MC3R selectivity (relative to MC4R)” value on human MC4R is reported as 120.
On to `CCCC[C@H](NC(=O)[C@@H](NC(=O)[C@@H](N)Cc1ccc(O)cc1)C(C)C)C(=O)N[C@H](C)C(=O)N[C@@H](Cc1c[nH]cn1)C(=O)N[C@@H](Cc1ccccc1)C(=O)N[C@@H](CCCNC(=N)N)C(=O)N[C@H](Cc1c[nH]c2ccccc12)C(=O)N[C@@H](CC(=O)O)C(N)=O` [CTX-1108, Tyr-Val-Nle-D-Ala-His-Phe-Arg-D-Trp-Asp] (H-YV[Nle][dA]HFR[dW]D-NH2), for which, in “in vitro” (mouse, plasma), the half-life at 1 µM is 1.32 min; the share remaining at 5 min, 1 µM is 7.21%; the amount remaining at 0.25 h, 1 µM was determined as 0.33%; the fraction remaining at 0.5 h, 1 µM was 0.04%. The amount remaining at 1 h, 1 µM in “in vitro” (mouse, plasma) stood at 0.01%. Moreover, in the series “in vitro” (pooled mouse plasma, 37° C.), the Mouse Plasma Stability, time point 0 min is 100%. Besides, the “MC3R selectivity (relative to MC4R)” value at human MC4R amounted to 79.
Turning to `CCCC[C@H](NC(=O)[C@@H](NC(=O)[C@@H](N)Cc1ccc(O)cc1)C(C)C)C(=O)N[C@H](C)C(=O)N[C@@H](Cc1c[nH]cn1)C(=O)N[C@H](Cc1ccccc1)C(=O)N[C@@H](CCCNC(=N)N)C(=O)N[C@H](Cc1c[nH]c2ccccc12)C(=O)N[C@@H](CC(=O)O)C(N)=O` [CTX-1109, Tyr-Val-Nle-D-Ala-His-D-Phe-Arg-D-Trp-Asp] (H-YV[Nle][dA]H[dF]R[dW]D-NH2), at human MC3R, the midpoint of the response, the EC50, lay at 13.1 nM. Further, at human MC4R, the “MC3R selectivity (relative to MC4R)” value amounted to 10.6.
On the same counts, the results for `CCCC[C@H](NC(=O)[C@@H](NC(=O)[C@@H](N)Cc1ccc(O)cc1)C(C)C)C(=O)N[C@H](C)C(=O)N[C@@H](Cc1c[nH]cn1)C(=O)N[C@@H](Cc1ccccc1)C(=O)N[C@@H](CCCNC(=N)N)C(=O)N[C@H](Cc1c[nH]c2ccccc12)C(=O)N[C@@H](CC(=O)O)C(=O)N[C@@H](CCCNC(=N)N)C(=O)N[C@@H](Cc1ccccc1)C(=O)NCC(N)=O` [CTX-1118, Tyr-Val-Nle-D-Ala-His-Phe-Arg-D-Trp-Asp-Arg-Phe-Gly] (H-YV[Nle][dA]HFR[dW]DRFG-NH2) are 1.2 nM and 59.
Turning to `CCCC[C@H](NC(=O)[C@@H](NC(=O)[C@H](Cc1ccc(O)cc1)NC)C(C)C)C(=O)N[C@H](C)C(=O)N[C@@H](Cc1c[nH]cn1)C(=O)N[C@@H](Cc1ccccc1)C(=O)N[C@@H](CCCNC(=N)N)C(=O)N[C@H](Cc1c[nH]c2ccccc12)C(=O)N[C@@H](CC(=O)O)C(N)=O` [CTX-1141, NMe-Tyr-Val-Nle-D-Ala-His-Phe-Arg-D-Trp-Asp] (H-[NMeY]V[Nle][dA]HFR[dW]D-NH2), in the series “in vitro” (mouse, plasma), the half-life at 1 µM was above 240 min; the fraction remaining at 5 min, 1 µM was determined as 106%; the fraction remaining at 0.25 h, 1 µM was found to be 118%; the fraction remaining at 0.5 h, 1 µM stood at 95%. Also, in “in vitro” (mouse, plasma), the fraction remaining at 1 h, 1 µM stood at 91.8%; the share remaining at 2 h, 1 µM amounted to 108%; the amount remaining at 4 h, 1 µM is 63.9%. This compound also returned a Mouse Plasma Stability, time point 0 min in “in vitro” (pooled mouse plasma, 37° C.) of 100%. On human MC4R, the “MC3R selectivity (relative to MC4R)” value is reported as 55.
The compound `CCCC[C@H](NC(C)=O)C(=O)N[C@H](C)C(=O)N[C@@H](Cc1c[nH]cn1)C(=O)N[C@@H](Cc1ccccc1)C(=O)N[C@@H](CCCNC(=N)N)C(=O)N[C@H](Cc1c[nH]c2ccccc12)C(=O)N[C@@H](CC(=O)O)C(=O)N[C@H](CCCNC(=N)N)C(=O)N[C@@H](Cc1ccccc1)C(=O)NCC(=O)O` [CTX-1146, Nle-D-Ala-His-Phe-Arg-D-Trp-Asp-D-Arg-Phe-Gly] (Ac-[Nle][dA]HFR[dW]D[dR]FG-OH) returned an EC50 at human MC3R of 170 nM.
Take `CCCC[C@H](NC(=O)[C@@H](NC(=O)[C@@H](N)Cc1ccc(O)cc1)C(C)C)C(=O)N[C@H](C)C(=O)N[C@@H](Cc1c[nH]cn1)C(=O)N[C@@H](Cc1ccc(Br)cc1)C(=O)N[C@@H](CCCNC(=N)N)C(=O)N[C@H](Cc1c[nH]c2ccccc12)C(=O)N[C@@H](CC(=O)O)C(=O)N[C@@H](CCCNC(=N)N)C(=O)N[C@@H](Cc1ccccc1)C(=O)NCC(=O)O` [CTX-2120, Tyr-Val-Nle-D-Ala-His-Phe(4-Br)-Arg-D-Trp-Asp-Arg-Phe-Gly] (H-YV[Nle][dA]H[Phe(4-Br)]R[dW]DRFG-OH): in the series “in vitro” (mouse, plasma), the half-life at 1 µM came to 2.01 min; the fraction remaining at 5 min, 1 µM stood at 17.9%; the amount remaining at 0.25 h, 1 µM came out at 0.78%; the share remaining at 0.5 h, 1 µM stood at 0.13%. The fraction remaining at 1 h, 1 µM in “in vitro” (mouse, plasma) came to 0.09%. For the same compound, the Mouse Plasma Stability, time point 0 min in the series “in vitro” (pooled mouse plasma, 37° C.) worked out at 100%. On human MC4R, the “MC3R selectivity (relative to MC4R)” value came to 173.
On to `CCN(CC)CCNC(=O)c1ccc(N)cc1` [Procainamide, reference compound], for which, in “in vitro” (mouse, 1 µM), the “Mouse Plasma Stability, time point 0 min” value is given as 100.00; the “Mouse Plasma Stability, time point 5 min” value is listed as 101.53; the “Mouse Plasma Stability, time point 15 min” value is on record as 109.16; the “Mouse Plasma Stability, time point 30 min” value stood at 103.05. Further, the “Mouse Plasma Stability, time point 60 min” value in the series “in vitro” (mouse, 1 µM) was determined as 104.43. Besides, the “Mouse Plasma Stability, time point 120 min” value in “in vitro” (mouse, 120 min, 1 µM) came to 110.61. Moreover, in the series “in vitro” (mouse, 240 min, 1 µM), the “Mouse Plasma Stability, time point 240 min” value was found to be 108.17.
`CCN(CC)CCOC(=O)c1ccc(N)cc1` [Procaine, reference compound] yielded a half-life at 1 µM in “in vitro” (mouse, pooled mouse plasma) of 3.81 min. In “in vitro” (pooled mouse plasma, 37° C.), this compound yielded a Mouse Plasma Stability, time point 0 min of 100%; a Mouse Plasma Stability, time point 5 min of 40.3%; a Mouse Plasma Stability, time point 30 min of 2.15%; a Mouse Plasma Stability, time point 60 min of 0.44%. For the same compound, the “Mouse Plasma Stability, time point 15 min” value in the series “in vitro” (pooled mouse plasma, 37° C., in % (unit assumed)) was found to be 8.80.

One may read the half-life as the time in which the quantity being followed falls by half. The low end stands for rapid decline, the high end for slow decline. The EC50 is the concentration needed to bring the measured effect to its halfway point. High values mean a need for much substance, low ones an effect from little substance.
